For orientation: MIC means the lowest concentration found to suppress growth. The term inhibition denotes the drop in the measured response relative to a control, in per cent.

Series [1] has as its system Staphylococcus aureus. As to the kind of experiment: Synergistic antibacterial activity against multidrug-resistant Staphylococcus aureus CCARM 3089 strain assessed as ciprofloxacin fractional inhibitory concentration by checkerboard assay. Type of series: functional.
The subject of series [2] is Staphylococcus aureus. The series can be described thus: Additive antibacterial activity against multidrug-resistant Staphylococcus aureus CCARM 3089 strain assessed as oxacillin fractional inhibitory concentration by checkerboard assay. Type of series: functional.
For series [3], the system named is Pseudomonas aeruginosa. The series can be described thus: Additive antibacterial activity against multidrug-resistant Pseudomonas aeruginosa CCARM 2095 strain assessed as bacterial growth inhibition in presence of ciprofloxacin by checkerboard assay. Type of series: functional.
The subject of series [4] is Pseudomonas aeruginosa. As to the kind of experiment: Additive antibacterial activity against multidrug-resistant Pseudomonas aeruginosa CCARM 2095 strain assessed as ciprofloxacin fractional inhibitory concentration by checkerboard assay. Type of series: functional.
Series [5] deals with Pseudomonas aeruginosa. The series can be described thus: Additive antibacterial activity against multidrug-resistant Pseudomonas aeruginosa CCARM 2095 strain assessed as bacterial growth inhibition in presence of chloramphenicol by checkerboard assay. Type of series: functional.
In series [6] the test system is Staphylococcus aureus. As to the kind of experiment: Antibacterial activity against multidrug-resistant Staphylococcus aureus CCARM 3089 strain assessed as fractional inhibitory concentration by checkerboard assay. Type of series: functional.
The test system of series [7] is Pseudomonas aeruginosa. As to the kind of experiment: Additive antibacterial activity against multidrug-resistant Pseudomonas aeruginosa CCARM 2095 strain assessed as bacterial growth inhibition in presence of oxacillin by checkerboard assay. The class given is functional.
Series [8] concerns Pseudomonas aeruginosa. As to the kind of experiment: Additive antibacterial activity against multidrug-resistant Pseudomonas aeruginosa CCARM 2095 strain assessed as ciprofloxacin MIC by checkerboard assay. Type of series: functional.
In series [9] the test system is Staphylococcus aureus. As to the kind of experiment: Additive antibacterial activity against methicillin-resistant Staphylococcus aureus CCARM 3089 strain assessed as bacterial growth inhibition in presence of oxacillin by checkerboard assay. The class given is functional.
Series [10] relates to Pseudomonas aeruginosa. The series can be described thus: Additive antibacterial activity against multidrug-resistant Pseudomonas aeruginosa CCARM 2095 strain assessed as fractional inhibitory concentration in presence of oxacillin by checkerboard assay. Type of series: functional.
Series [11] concerns Pseudomonas aeruginosa. The series can be described thus: Additive antibacterial activity against multidrug-resistant Pseudomonas aeruginosa CCARM 2095 strain assessed as fractional inhibitory concentration in presence of ciprofloxacin by checkerboard assay. The class given is functional.
Series [12] deals with Pseudomonas aeruginosa. The series can be described thus: Additive antibacterial activity against multidrug-resistant Pseudomonas aeruginosa CCARM 2095 strain assessed as fractional inhibitory concentration in presence of chloramphenicol by checkerboard assay. Type of series: functional.
The test system of series [13] is Pseudomonas aeruginosa. The series can be described thus: Additive antibacterial activity against multidrug-resistant Pseudomonas aeruginosa CCARM 2095 strain assessed as Oxacillin MIC by checkerboard assay. Type of series: functional.
Series [14] concerns Pseudomonas aeruginosa. The series can be described thus: Additive antibacterial activity against multidrug-resistant Pseudomonas aeruginosa CCARM 2095 strain assessed as chloramphenicol fractional inhibitory concentration by checkerboard assay. The class given is functional.
Series [15] deals with Staphylococcus aureus. As to the kind of experiment: Additive antibacterial activity against methicillin-resistant Staphylococcus aureus CCARM 3089 strain assessed as oxacillin MIC by checkerboard assay. The class given is functional.
The subject of series [16] is Staphylococcus aureus. As to the kind of experiment: Antibacterial activity against methicillin-resistant Staphylococcus aureus CCARM 3089 strain assessed as bacterial growth inhibition in presence of ciprofloxacin by checkerboard assay. The class given is functional.
The subject of series [17] is Pseudomonas aeruginosa. The series can be described thus: Additive antibacterial activity against multidrug-resistant Pseudomonas aeruginosa CCARM 2095 strain assessed as fractional inhibitory concentration index in presence of oxacillin by checkerboard assay. Type of series: functional.
Series [18] concerns Pseudomonas aeruginosa. As to the kind of experiment: Additive antibacterial activity against multidrug-resistant Pseudomonas aeruginosa CCARM 2095 strain assessed as fractional inhibitory concentration index in presence of ciprofloxacin by checkerboard assay. Type of series: functional.
For series [19], the system named is Pseudomonas aeruginosa. As to the kind of experiment: Additive antibacterial activity against multidrug-resistant Pseudomonas aeruginosa CCARM 2095 strain assessed as oxacillin fractional inhibitory concentration by checkerboard assay. The class given is functional.
For series [20], the system named is Staphylococcus aureus. As to the kind of experiment: Potency index, ratio of melittin MIC to test compound MIC against methicillin-resistant Staphylococcus aureus CCARM 3095 assessed as bacterial growth inhibition measured at 18 to 24 hrs by microdilution assay. To be noted: time 18-24 hrs. The class given is functional.
The subject of series [21] is Staphylococcus aureus. As to the kind of experiment: Synergistic antibacterial activity against methicillin-resistant Staphylococcus aureus CCARM 3089 strain assessed as bacterial growth inhibition in presence of chloramphenicol by checkerboard assay. Type of series: functional.
Series [22] concerns Staphylococcus aureus. The series can be described thus: Potency index, ratio of melittin MIC to test compound MIC against methicillin-resistant Staphylococcus aureus CCARM 3089 assessed as bacterial growth inhibition measured at 18 to 24 hrs by microdilution assay. The conditions noted are these: time 18-24 hrs. Type of series: functional. Background: Dilution methods test growth across graded concentrations, often in twofold steps.

Series [23] has as its system Staphylococcus aureus. The series can be described thus: Synergistic antibacterial activity against methicillin-resistant Staphylococcus aureus CCARM 3089 strain assessed as chloramphenicol MIC by checkerboard assay. Type of series: functional.
Series [24] deals with Staphylococcus aureus. As to the kind of experiment: Synergistic antibacterial activity against methicillin-resistant Staphylococcus aureus CCARM 3089 strain assessed as fractional inhibitory concentration in presence of chloramphenicol by checkerboard assay. Type of series: functional.
Series [25] deals with Staphylococcus aureus. The series can be described thus: Additive antibacterial activity against multidrug-resistant Staphylococcus aureus CCARM 3089 strain assessed as chloramphenicol fractional inhibitory concentration by checkerboard assay. The class given is functional.
In series [26] the test system is Staphylococcus aureus. As to the kind of experiment: Synergistic antibacterial activity against multidrug-resistant Staphylococcus aureus CCARM 3089 strain assessed as fractional inhibitory concentration index in presence of chloramphenicol by checkerboard assay. The class given is functional.
Series [27] concerns Staphylococcus aureus. As to the kind of experiment: Synergistic antibacterial activity against multidrug-resistant Staphylococcus aureus CCARM 3089 strain assessed as chloramphenicol fractional inhibitory concentration by checkerboard assay. The class given is functional.
The test system of series [28] is Staphylococcus aureus. The series can be described thus: Potency index, ratio of melittin MIC to test compound MIC against methicillin-resistant Staphylococcus aureus CCARM 3090 assessed as bacterial growth inhibition measured at 18 to 24 hrs by microdilution assay. The class given is functional. The conditions noted are these: time 18-24 hrs.
The test system of series [29] is Pseudomonas aeruginosa. The series can be described thus: Antibacterial activity against multidrug-resistant Pseudomonas aeruginosa CCARM 2095 strain assessed as fractional inhibitory concentration by checkerboard assay. The class given is functional.
The subject of series [30] is Pseudomonas aeruginosa. The series can be described thus: Antibacterial activity against multidrug-resistant Pseudomonas aeruginosa CCARM 2095 strain assessed as fractional inhibitory concentration in presence of chloramphenicol by checkerboard assay. The class given is functional.
Series [31] deals with Staphylococcus aureus. The series can be described thus: Additive antibacterial activity against methicillin-resistant Staphylococcus aureus CCARM 3089 strain assessed as bacterial growth inhibition in presence of ciprofloxacin by checkerboard assay. The class given is functional.
Series [32] deals with Pseudomonas aeruginosa. The series can be described thus: Antibacterial activity against multidrug-resistant Pseudomonas aeruginosa CCARM 2095 strain assessed as bacterial growth inhibition by checkerboard assay. Type of series: functional.
The test system of series [33] is Pseudomonas aeruginosa. As to the kind of experiment: Antibacterial activity against multidrug-resistant Pseudomonas aeruginosa CCARM 2095 strain assessed as chloramphenicol MIC by checkerboard assay. The class given is functional.
Series [34] has as its system Pseudomonas aeruginosa. The series can be described thus: Antibacterial activity against multidrug-resistant Pseudomonas aeruginosa CCARM 2095 strain assessed as fractional inhibitory concentration index in presence of chloramphenicol by checkerboard assay. The class given is functional.
Series [35] deals with Pseudomonas aeruginosa. The series can be described thus: Antibiofilm activity against multidrug-resistant Pseudomonas aeruginosa assessed as bacterial growth inhibition at 8 ug/ml relative to control. The class given is functional.
The test system of series [36] is Pseudomonas aeruginosa. The series can be described thus: Antibiofilm activity against multidrug-resistant Pseudomonas aeruginosa assessed as bacterial growth inhibition at 1 ug/ml relative to control. Type of series: functional.
For series [37], the system named is Pseudomonas aeruginosa. As to the kind of experiment: Synergistic bactericidal activity against multidrug-resistant Pseudomonas aeruginosa CCARM 2095 at 0.5 times MIC measured after 60 mins in presence of 0.5 times MIC of oxacillin by time-kill kinetics assay. Type of series: functional, organism-based.
For series [38], the system named is Pseudomonas aeruginosa. The series can be described thus: Bactericidal activity against multidrug-resistant Pseudomonas aeruginosa CCARM 2095 measured after 24 hrs by time-kill kinetics assay. The class given is functional, organism-based.
Series [39] deals with Pseudomonas aeruginosa. As to the kind of experiment: Synergistic bactericidal activity against multidrug-resistant Pseudomonas aeruginosa CCARM 2095 at 0.5 times MIC measured after 60 mins in presence of 0.5 times MIC of ciprofloxacin by time-kill kinetics assay. The class given is functional, organism-based.
In series [40] the test system is Pseudomonas aeruginosa. The series can be described thus: Bacteriostatic activity against multidrug-resistant Pseudomonas aeruginosa CCARM 2095 measured after 24 hrs by time-kill kinetics assay. The class given is functional, organism-based.
Series [41] is described as follows: Drug localization in Escherichia coli KCTC 1682 cytoplasm incubated for 0.5 hrs by CDFA based confocal laser scanning microscopic analysis. Type of series: ADME, subcellular.

The source made the active and inactive calls. The calls are words filed in the database; no cut-off is given here.

As for `NCCCCNc1nc(NCCCCN)nc(N2CC(Cc3ccccc3)N(c3nc(NCCCCN)nc(NCCCCN)n3)CC2Cc2ccccc2)n1` (stereo not given), the FIC in the series with Staphylococcus aureus [1] turned out to be 0.125; in the series with Staphylococcus aureus [2], 0.25.
Regarding `N=C(N)NCCNc1nc(NCCNC(=N)N)nc(N2CC(Cc3ccccc3)N(c3nc(NCCNC(=N)N)nc(NCCNC(=N)N)n3)CC2Cc2ccccc2)n1` (stereo not given), the MIC was found to be 16 µg/mL in the series with Pseudomonas aeruginosa [3]; 8 µg/mL in the series with Pseudomonas aeruginosa [5]; 16 µg/mL with Pseudomonas aeruginosa [7]; 512 µg/mL in the series on Pseudomonas aeruginosa [8]; 4 µg/mL with Staphylococcus aureus [9]; 256 µg/mL with Pseudomonas aeruginosa [13]. For the same compound, the MIC was 128 µg/mL with Staphylococcus aureus [15] and 8 µg/mL with Staphylococcus aureus [16]. The FIC with Pseudomonas aeruginosa [4] worked out at 0.5; with Staphylococcus aureus [6], 1; with Pseudomonas aeruginosa [10], 0.5; with Pseudomonas aeruginosa [11] it was 0.5; in the series on Pseudomonas aeruginosa [12], 0.5; in the series with Pseudomonas aeruginosa [14], 0.25. Also, the FIC in the series with Pseudomonas aeruginosa [19] is given as 0.25. The figures for the “fractional inhibitory concentration index (FICI)” value with Pseudomonas aeruginosa [17] and with Pseudomonas aeruginosa [18] were 0.75 and 1, respectively.
On to `NCCCN(CCCN)c1nc(NCc2ccccc2)nc(N2CC(Cc3ccccc3)N(c3nc(NCc4ccccc4)nc(N(CCCN)CCCN)n3)CC2Cc2ccccc2)n1` (stereo not given), for which the Ratio in the series with Staphylococcus aureus [20], in the series on Staphylococcus aureus [22] and with Staphylococcus aureus [28] was 2 each time. Also, the MIC in the series on Staphylococcus aureus [21] was 1 µg/mL; in the series on Staphylococcus aureus [23] it was 128 µg/mL. The FIC amounted to 0.125 in the series on Staphylococcus aureus [1]; 0.125 with Staphylococcus aureus [2]; 0.5 in the series on Staphylococcus aureus [24]; 0.25 in the series on Staphylococcus aureus [25]; 0.25 in the series with Staphylococcus aureus [27]. For the same compound, in the series on Staphylococcus aureus [26], the “fractional inhibitory concentration index (FICI)” value is 0.5.
On to `NCCNc1nc(NCCN)nc(N2CC(Cc3ccccc3)N(c3nc(NCCN)nc(NCCN)n3)CC2Cc2ccccc2)n1` (stereo not given), for which the FIC with Pseudomonas aeruginosa [29] worked out at 0.25; with Staphylococcus aureus [2], 0.25; with Pseudomonas aeruginosa [10] it was 0.5; with Pseudomonas aeruginosa [30], 1 µg/mL; in the series with Pseudomonas aeruginosa [19], 0.5. The MIC with Pseudomonas aeruginosa [7] was 8 µg/mL; in the series with Staphylococcus aureus [31], 16 µg/mL; with Pseudomonas aeruginosa [13], 512 µg/mL; in the series with Pseudomonas aeruginosa [32] it was 16 µg/mL; with Pseudomonas aeruginosa [33], 256 µg/mL. The “fractional inhibitory concentration index (FICI)” value is on record as 1 with Pseudomonas aeruginosa [17] and 1.25 with Pseudomonas aeruginosa [34].
`NCCN(CCN)c1nc(NCc2ccccc2)nc(N2CC(Cc3ccccc3)N(c3nc(NCc4ccccc4)nc(N(CCN)CCN)n3)CC2Cc2ccccc2)n1` (stereo not given): in the series on Pseudomonas aeruginosa [35], the inhibition at 8 µg/mL came out at 100%. The Ratio in the series with Staphylococcus aureus [20], in the series on Staphylococcus aureus [22] and with Staphylococcus aureus [28] was 2 throughout. The MIC amounted to 2 µg/mL in the series on Staphylococcus aureus [21] and 128 µg/mL with Staphylococcus aureus [23]. The inhibition at 1 µg/mL in the series with Pseudomonas aeruginosa [36] amounted to 50%. Besides, the result with Pseudomonas aeruginosa [37] and with Pseudomonas aeruginosa [39] was Active. Moreover, the FIC in the series on Staphylococcus aureus [1] is on record as 0.125; in the series with Staphylococcus aureus [2], 0.25; with Staphylococcus aureus [24], 0.5; with Staphylococcus aureus [25] it was 0.25; with Staphylococcus aureus [27] it was 0.25. Besides, the result in the series with Pseudomonas aeruginosa [38] and in the series on Pseudomonas aeruginosa [40] was inactive. The “fractional inhibitory concentration index (FICI)” value with Staphylococcus aureus [26] was 0.5. Moreover, in [41], the Drug uptake result was “Active”.
